Experimental data: patent EP0559700B1, “NOVEL PILOCARPINE DERIVATIVES AND PROCESS FOR THEIR PREPARATION” (Santen Oy, priority 1990, dated 1992)

Experiments:
[1] = Corneal permeability in a diffusion chamber; assay type: in vitro ADME, rabbit; conditions: rabbit eye cornea, diffusion chamber, epithelium side to endothelium side; read-out: Permeability coefficient Papp
Source text: The corneal permeability of pilocarpine hydrochloride and its most promising prodrug derivatives as evaluated from the tests described above were studied in a diffusion chamber, wherein the migration of the compound from the delivering phase (epithelium side) thorugh the cornea to the acceptor side (endothelium side) of the diffusion chamber. In the study, rabbit eye cornea was used. From the samples taken from the acceptor side of the diffusion chamber, both the concentration of the prodrug and the liberated drug were determined in the acceptor phase with HPLC. Thus the rate of degradation of the prodrug in the cornea was determined. The permeability coefficients (Papp, cm/s) calculated from the permeability rate (μmol/min), their […] deviations (RSD) and the number of tests, are given in the Table II below.

[2] = Enzyme hydrolysis in plasma/buffer pH 7.4 mixture (80%-20%); assay type: in vitro ADME; conditions: for half-life: 80% plasma/buffer
Experimental: The half-times of enzyme hydrolysis of the novel bispilocarpates according to the invention and of known pilocarpic acid diesters were determined in a plasma/buffer pH 7.4-mixture (80%-20%) at 37°C. The degradation constants (k) for the compounds tested and determined from the plot showing the logarithm of remaining diester as a function of time and the half-lives T½ are shown in the Table II below. From the results it may be seen that in […] the stable test compound degrades under the influence of an enzyme (esterase) to a O,O'-dihydrogen bispilocarpate intermediate, which spontaneously degrades at pH 7.40 to pilocarpine. Consequently the effect of the bispilocarpate intermediate on the rate of formation of pilocarpine is very significant. The formation of pilocarpine was almost complete irrespective of the epimerization possibility of the intermediate. The amount of isopilocarpine formed varied from 0 to 10%, as also the pilocarpine formed epimerized, if the duration of hydrolysis was very long.

[3] = Lipophilicity: partition coefficient (octanol-buffer) and capacity factor by RP-HPLC; assay type: physicochemical; conditions: for chromatographic logP / Capacity factor (22°C) k': rp-hplc; for chromatographic logP: reverse phase HPLC, 22°C, read-out: Capacity factor (22°C) k' (converted)
Source text: The lipophilicity of the compounds were studied by determining the partition coefficients (P) of the compounds at a pH of 7.40. The measurements were made either in an octanol-buffer mixture by determining the concentration of the compound to be studied in the buffer phase by HPLC. The partition coefficients of the very lipophilic compounds were, however, determined by reverse phase (RP) liquid chromatography (HPLC) from the retention time (Beckmann 116 pump and 166 UV detector; Marathon autom. sample feeder). […] From the results it can be seen that the compounds of the invention are considerably more lipophilic than the pilocarpine.

[4] = Stability of the compounds: buffer hydrolysis (half-times, shelf-life); assay type: physicochemical
Experimental: The stability of the test compounds were tested with buffer hydrolyses. The ionic strength (µ) of the buffers was 0.5, the pH-values used 4.2, 6.0, 7.4 and 9.0 and the temperatures used 37°C, 50 °C, 60 °C and 70 °C.
The half-times T½ calculated on basis of the degradation constant k obtained for each studied compound (T½=0.693/k; k = 2.303 x kk, wherein kk is the angular coefficient of the plot which illustrates the logarithm of the remaining ester as a function of time) in a buffer solution of said pH, are indicated in the Table I below, which values refer to half-times at 37°C.
The storage stability of the derivatives under different storage conditions may be estimated by determining the degradation constants at different temperatures and calculating the degradation constant k at the desired temperature from the equation of the plot corresponding to the Arrhenius equation (1), wherein log k is given as a function of [1/T]. Log k = Log A -(Ea)/(2.303R)x(1)/(T) [formula]
From the degradation constant (k) obtained at the desired temperature the shelf-life-time t10% (t10% = 0.104/k) which indicates the time during which 10% of the drug has degraded may be calculated. By way of example it may be mentioned that the t10%-time of O,O'-dipropionyl (1,4-xylylene) bispilocarpate at 4 °C is almost 500 days.

[5] = pKa-value determination by titration in a water-ethanol mixture (50%-50%); assay type: physicochemical; conditions: water-ethanol 50:50; titration in water-ethanol mixture (50%-50%)
[6] = plasma/buffer pH 7.4 (80%-20%), 37°C, read-out: half-times (T½) in plasma (80%), 37°C
[7] = plasma/buffer pH 7.4 (80%-20%), 37°C
[8] = buffer pH 6.00, ionic strength 0.5, 37°C, read-out: Half-times in buffers at 37°C, T½, pH 6.00 (converted)
[9] = buffer pH 9.00, ionic strength 0.5, 37°C, read-out: Half-times in buffers at 37°C, T½, pH 9.00 (converted)
[10] = pH 4.2, buffer pH 4.20, ionic strength 0.5, 37°C, read-out: Half-times in buffers at 37°C, T½, pH 4.20 (converted)
[11] = pH 7.4, buffer pH 7.40, ionic strength 0.5, 37°C, read-out: Half-times in buffers at 37°C, T½, pH 7.40 (converted)
[12] = determined from the equation log k'= 0.182 Log P - 0.4086 (RP-HPLC retention)

| Papp [1] [×10⁻⁶ cm/s] | half-life [2, 6] [h] | Degradation coefficient (k) in plasma (80%), 37°C [2, 7] [min⁻¹] | chromatographic logP [3] | half-life [4, 8] [h] | half-life [4, 9] [h] | half-life [4, 10] [h] | half-life [4, 11] [h] | pKa [5] | Partition coefficient log P [3, 12] | Partition coefficient log P ([3]; pH 7.4) | Capacity factor (22°C) k' [3] | half-life ([4]; buffer, pH 4.2) [h] | half-life ([4]; buffer, pH 6) [h] | half-life ([4]; buffer, pH 7.4) [h] | half-life ([4]; buffer, pH 9) [h] | half-life ([2]; pH 7.4) [h] | Degradation coefficient (k) in plasma (80%), 37°C ([2]; pH 7.4) [min⁻¹] | Compound |
| --- | --- | --- | --- | --- | --- | --- | --- | --- | --- | --- | --- | --- | --- | --- | --- | --- | --- | --- |
| 7.2 | 0.367 | 0.03132 | – | – | – | – | – | – | – | – | – | – | – | – | – | – | – | CC[C@H](C(=O)OCc1ccccc1)[C@H](COC(=O)c1cccc(Cl)c1)Cc1cncn1C [3-chloro-benzoyl, benzyl, reference compound] |
| – | – | – | -0.0915 | 2.28 | 0.0317 | 37.6 | 0.3 | 6.25 | – | – | – | – | – | – | – | – | – | CC[C@H](C(=O)OCc1ccc(COC(=O)[C@@H](CC)[C@H](CO)Cc2cncn2C)cc1)[C@H](CO)Cc1cncn1C [Example 1, O,O'-Dihydrogen (1,4-xylylene) bispilocarpate] |
| – | – | – | -0.0814 | 2.78 | 0.0183 | 48.8 | 0.317 | 6.3 | – | – | – | – | – | – | – | – | – | CC[C@H](C(=O)OCc1cccc(COC(=O)[C@@H](CC)[C@H](CO)Cc2cncn2C)c1)[C@H](CO)Cc1cncn1C [Example 2, O,O'-Dihydrogen (1,3-xylylene) bispilocarpate] |
| – | – | – | -0.0814 | 3.35 | 0.0233 | 20.2 | 0.417 | 6.3 | – | – | – | – | – | – | – | – | – | CC[C@H](C(=O)OCc1ccccc1COC(=O)[C@@H](CC)[C@H](CO)Cc1cncn1C)[C@H](CO)Cc1cncn1C [Example 3, O,O'-Dihydrogen (1,2-xylylene) bispilocarpate] |
| – | – | – | 0.0518 | 29.9 | 0.3 | 81.8 | 3.35 | 6.3 | – | – | – | – | – | – | – | – | – | CC[C@H](C(=O)OCCCCCCCOC(=O)[C@@H](CC)[C@H](CO)Cc1cncn1C)[C@H](CO)Cc1cncn1C [Example 4, O,O'-Dihydrogen (1,7-heptylene) bispilocarpate] |
| – | – | – | -0.0494 | 25.1 | 0.233 | 62.6 | 2.5 | 6.3 | – | – | – | – | – | – | – | – | – | CC[C@H](C(=O)OCCCCCCOC(=O)[C@@H](CC)[C@H](CO)Cc1cncn1C)[C@H](CO)Cc1cncn1C [Example 5, O,O'-Dihydrogen (1,6-hexylene) bispilocarpate] |
| – | – | – | -0.123 | 24.6 | 0.233 | 73 | 2.08 | 6.3 | – | – | – | – | – | – | – | – | – | CC[C@H](C(=O)OCCCCCOC(=O)[C@@H](CC)[C@H](CO)Cc1cncn1C)[C@H](CO)Cc1cncn1C [Example 6, O,O'-Dihydrogen (1,5-pentylene) bispilocarpate] |
| – | – | – | -0.182 | 18.9 | 0.167 | 120 | 2.63 | 6.35 | – | – | – | – | – | – | – | – | – | CC[C@H](C(=O)OCCCCOC(=O)[C@@H](CC)[C@H](CO)Cc1cncn1C)[C@H](CO)Cc1cncn1C [Example 7, O,O'-Dihydrogen (1,4-butylene) bispilocarpate] |
| – | – | – | -0.212 | 10.3 | 0.0667 | 67.3 | 1.2 | 6.4 | – | – | – | – | – | – | – | – | – | CC[C@H](C(=O)OCCCOC(=O)[C@@H](CC)[C@H](CO)Cc1cncn1C)[C@H](CO)Cc1cncn1C [Example 8, O,O' -Dihydrogen (1,3-propylene) bispilocarpate] |
| – | 1.57 | 0.00737 | 0.773 | – | 8 | – | – | 5.8 | 6.4929^2 | – | – | – | – | – | – | – | – | CC[C@H](C(=O)OCc1ccc(COC(=O)[C@@H](CC)[C@H](COC(=O)c2ccccc2)Cc2cncn2C)cc1)[C@H](COC(=O)c1ccccc1)Cc1cncn1C [Example 14, O,O'-Dibenzoyl (1,4-xylylene) bispilocarpate] |
| – | – | – | 0.651 | – | – | – | – | 6 | – | 5.8242^2 | 4.4810 | 3140 | 1650 | 655 | 70 | 0.467 | 0.02487 | CC[C@H](C(=O)OCc1ccccc1)[C@H](COC(=O)CCCCC(=O)OC[C@H](Cc1cncn1C)[C@H](CC)C(=O)OCc1ccccc1)Cc1cncn1C [Example 15, O,O'-Adipoyl (dibenzyl) bispilocarpate] |
| – | – | – | 0.576 | 2200 | 43 | 4190 | 757 | 6 | 5.4093^2 | – | – | – | – | – | – | 0.233 | 0.05044 | CC[C@H](C(=O)OCc1ccccc1)[C@H](COC(=O)CCCC(=O)OC[C@H](Cc1cncn1C)[C@H](CC)C(=O)OCc1ccccc1)Cc1cncn1C [Example 16, O,O'-Glutaryl (dibenzyl) bispilocarpate] |
| – | – | – | 0.539 | – | – | – | – | 6 | – | 5.2038^2 | 3.4557 | 4760 | 2550 | 251 | 28 | 3.13 | 0.00368 | CC[C@H](C(=O)OCc1ccccc1)[C@H](COC(=O)CCC(=O)OC[C@H](Cc1cncn1C)[C@H](CC)C(=O)OCc1ccccc1)Cc1cncn1C [Example 17, O,O'-Succinyl (dibenzyl) bispilocarpate] |
| – | – | – | 0.631 | – | – | – | – | 6.05 | – | 5.7137^2 | 4.2785 | 834 | 49 | 6 | 0.4 | 2.78 | 0.00415 | CC[C@H](C(=O)OCc1ccccc1)[C@H](COC(=O)/C=C/C(=O)OC[C@H](Cc1cncn1C)[C@H](CC)C(=O)OCc1ccccc1)Cc1cncn1C [Example 18, O,O'-Fumaroyl (dibenzyl) bispilocarpate] |
| – | – | – | 0.865 | 913 | 38 | 1580 | 55 | 6 | 7.0000^2 | – | – | – | – | – | – | 3.58 | 0.00322 | CC[C@H](C(=O)OCc1ccccc1)[C@H](COC(=O)c1ccc(C(=O)OC[C@H](Cc2cncn2C)[C@H](CC)C(=O)OCc2ccccc2)cc1)Cc1cncn1C [Example 19, O,O'-Terephtaloyl (dibenzyl) bispilocarpate] |
| – | 0.45 | 0.02556 | – | – | – | – | – | – | – | – | – | – | – | – | – | – | – | CCCCCCCC(=O)OC[C@H](Cc1cncn1C)[C@H](CC)C(=O)OCc1ccccc1 [octanoyl, benzyl, reference compound] |
| – | – | – | -0.116 | – | – | – | – | 6.5 | – | – | – | – | – | – | – | – | – | CC[C@H](C(=O)OCc1ccccc1)[C@H](CO)Cc1cncn1C [pilocarpic acid benzyl ester] |
